Some targets named below: Carbonic anhydrase 2 (Homo sapiens, UniProt P00918); Carbonic anhydrase 1 (Homo sapiens, UniProt P00915); Carbonic anhydrase 9 (Homo sapiens, UniProt Q16790).

Carbonic anhydrase 1, sequence (P00915 whole entry): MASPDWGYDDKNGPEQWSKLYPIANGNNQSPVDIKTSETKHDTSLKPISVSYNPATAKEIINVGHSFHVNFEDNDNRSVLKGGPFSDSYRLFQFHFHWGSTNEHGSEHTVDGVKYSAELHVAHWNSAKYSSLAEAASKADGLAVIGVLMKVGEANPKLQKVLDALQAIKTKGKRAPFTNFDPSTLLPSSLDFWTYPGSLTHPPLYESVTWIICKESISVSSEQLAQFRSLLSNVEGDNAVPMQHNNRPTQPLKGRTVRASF
Description for Carbonic anhydrase 1: Inhibitory activity against human cloned Carbonic anhydrase I by the CO2 hydration method
Description for Carbonic anhydrase 2: Inhibitory activity against human cloned Carbonic anhydrase II by the CO2 hydration method
Description for Carbonic anhydrase 9: Inhibitory activity against catalytic domain of human cloned Carbonic anhydrase IX by the CO2 hydration method

A word on the Ki: it is the equilibrium dissociation constant of an inhibitor or competing ligand from its target. Higher therefore signals lower affinity. In the case of `CCNS(=O)(=O)c1ccc2c(c1)S(=O)(=O)C=C2`, the Ki at Carbonic anhydrase 2 is 436 nM; at Carbonic anhydrase 1, 530 nM; at Carbonic anhydrase 9, 362 nM.

Turning to `NS(=O)(=O)c1ccc2c(c1)S(=O)(=O)CC2`, the values for the Ki on Carbonic anhydrase 2, on Carbonic anhydrase 1 and on Carbonic anhydrase 9 were 8.8 nM, 72 nM and 10 nM, respectively.

Take `CC1=CS(=O)(=O)c2cc(S(N)(=O)=O)ccc21`: the results for the Ki at Carbonic anhydrase 2, at Carbonic anhydrase 1 and at Carbonic anhydrase 9 were 8.3 nM, 85 nM and 13 nM, respectively.

`NS(=O)(=O)c1ccc2c(c1)C=CS2(=O)=O`: the Ki at Carbonic anhydrase 2 is 7.4 nM; at Carbonic anhydrase 1 it was 75 nM; on Carbonic anhydrase 9, 13 nM.

Take `NS(=O)(=O)c1ccc2c(c1)S(=O)(=O)C=C2`: the Ki at Carbonic anhydrase 2 came to 7.5 nM; at Carbonic anhydrase 1, 63 nM; on Carbonic anhydrase 9 it was 15 nM.

Turning to `CCCCOC1CS(=O)(=O)c2cc(S(N)(=O)=O)ccc21` (stereo not given), the Ki at Carbonic anhydrase 2 stood at 6.3 nM; at Carbonic anhydrase 1, 104 nM; at Carbonic anhydrase 9, 3.1 nM.

On to `O=S1(=O)C=Cc2ccc(S(=O)(=O)NCc3ccccc3)cc21`, for which the Ki on Carbonic anhydrase 2, on Carbonic anhydrase 1 and at Carbonic anhydrase 9 was above 1000 nM each time.

Take `COc1cccc(NS(=O)(=O)c2ccc3c(c2)C=CS3(=O)=O)c1`: the Ki on Carbonic anhydrase 2, on Carbonic anhydrase 1 and at Carbonic anhydrase 9 was above 1000 nM each time.

For `NS(=O)(=O)c1ccc2c(c1)S(=O)(=O)CC2OCc1ccccc1` (stereo not given), the values for the Ki at Carbonic anhydrase 2, at Carbonic anhydrase 1 and at Carbonic anhydrase 9 were 7.9 nM, 138 nM and 2.8 nM, respectively.

With `O=S1(=O)C=Cc2ccc(S(=O)(=O)NCC3CC3)cc21`, the inhibitory constant (Ki) at Carbonic anhydrase 2 was determined as 475 nM; at Carbonic anhydrase 1 it was 493 nM; on Carbonic anhydrase 9 it was 76 nM.
